Columns and labels:
Test in all cases: Paper disk diffusion antibacterial test
Type in all cases: cell-based
[1] = test system: Staphylococcus aureus ATCC 29213
Description: (§1) In Vitro antimicrobial activity was evaluated using both gram-positive and gram-negative bacterial strains. The results reproduced here are exemplary and may include other microorganisms such as Escherichia coli, Listeria monocytogenes, Lactobacillus, yeast, vancomycin-resistant Enterococcus, molds, and spores. The in vitro antibacterial activity was evaluated for. gram-positive bacteria (Staphylococcus aureus ATCC 29213 and Staphylococcus epidermidis ATCC 12228) and gram-negative bacteria (Pseudomonas aeruginosa ATCC 27853) obtained from King Fahd Hospital, AlKhobar, Saudi Arabia.
(§2) Antimicrobial activity of three imidazopyrazole derivatives (1), (2) and (3) were evaluated qualitatively by paper disk diffusion method [CLSI.; Approved Standard, 11th ed.; CLSI document M02-A11; Clinical and Laboratory Standards Institute: Wayne, PA, USA, 2012, incorporated herein by reference in its entirety]. The three chemical materials i.e. compounds (1), (2) and (3) were prepared in different concentrations as follows: 0.01, 0.02, 0.03, 0.05, and 0.1 g/mL in dimethyl sulfoxide (DMSO) and tested directly. Paper discs measured 6 mm in diameter were soaked separately with 100 μL of the chemical materials and were left to dry. Bacterial inoculums were prepared from previous cultures in Muller-Hinton broth. The bacterial cell suspension turbidity was adjusted to a 0.5 McFarland standard, which represented approximately 1-2×10^8 colony-forming units (CFU)/mL using a Biomerieux DensiCHEK plus meter device (Missouri, MO, USA). Bacterial inoculums at 0.5 mL were transferred to petri plates under sterilized conditions. Melted Muller-Hinton agar at approximately 50° C. was poured over the inoculums, and to ensure even distribution of the inoculums, the plates were rotated neatly, then cultures were left to harden for 5 min. Then, previously prepared paper discs, saturated with chemicals, were transferred, using sterilized forceps, to the surface of petri plates that contained the bacterial cultures. Gentamicin (CN10 μg), aminoglycosides antibiotic was used as the positive control and DMSO was used as the negative control. The petri plates were placed in the refrigerator (General Electric, Medford, MA, USA) to allow diffusion of the chemicals into the agar for an hour. Then the petri plates were incubated at 37° C. for 24 h. After the incubation period ended, the area of inhibition around the discs was measured with a ruler. Three replicants were made to ensure the accuracy of the experiment.

[2] = test system: Staphylococcus epidermidis ATCC 12228
Description: as §1, §2

[3] = test system: Pseudomonas aeruginosa ATCC 27853
Description: as §1, §2

[4] = 0.05 g/mL in DMSO, 6 mm paper disc, 37° C. 24 h
[5] = 0.1 g/mL in DMSO, 6 mm paper disc, 37° C. 24 h

**Q.** What does the source list for `CC1=NN(c2ccccc2)C2=NC(=S)NC12` (stereo not shown) [(1), 3-Methyl-1-Phenyl-3a,4-Dihydro Imidazo(4,5-c) Pyrazole-5(1H)-Thione]?
**A.** zone of inhibition (mm) means ± SD [1, 4]: 7.7 ± 0.6 mm; zone of inhibition (mm) means ± SD [1, 5]: 9.0 ± 1.0 mm; zone of inhibition (mm) means ± SD [2, 4]: 8.3 ± 0.6 mm; zone of inhibition (mm) means ± SD [2, 5]: 8.3 ± 0. mm; zone of inhibition (mm) means ± SD [3, 4]: 10.0 ± 1.0 mm; zone of inhibition (mm) means ± SD [3, 5]: 11.0 ± 1.0 mm

**Q.** Which results are given for `CC1=NN(c2ccccc2)C2=NC(NC(N)=S)=NC12` (stereo not shown) [(2), 1-(3-Methyl-1-Phenyl-1,3a-Dihydroimidazo[4,5-c] Pyrazol-5-yl) Thiourea]?
**A.** zone of inhibition (mm) means ± SD [1, 4]: 18.0 ± 0.0 mm; zone of inhibition (mm) means ± SD [1, 5]: 18.7 ± 0.6 mm; area of inhibition zone compared with positive control gentamicin ([1]; at the concentrations 0.05 g/mL and 0.01 g/mL, gentamicin CN10 μg): equal to gentamicin; zone of inhibition (mm) means ± SD [2, 4]: 8.3 ± 0.6 mm; zone of inhibition (mm) means ± SD [2, 5]: 9.3 ± 0.6 mm; zone of inhibition (mm) means ± SD [3, 4]: 7.7 ± 0.6 mm; zone of inhibition (mm) means ± SD [3, 5]: 8.3 ± 0.6 mm

**Q.** Which “zone of inhibition (mm) means ± SD” value [1, 4] does the source give for `CCOC(=O)CSC1=NC2C(C)=NN(c3ccccc3)C2=N1` (stereo not shown) [(3), Ethyl 2-((3-Methyl-1-Phenyl-1,3adihydroimidazo[4,5-c] Pyrazol-5-yl)thio) Acetate] here?
**A.** Its value is 7.3 ± 0.6 mm.

**Q.** What about the “zone of inhibition (mm) means ± SD” value [1, 5] of the same compound?
**A.** The value was 8.7 ± 0.6 mm.

**Q.** And the “zone of inhibition (mm) means ± SD” value [2, 4]?
**A.** Its value is 7.3 ± 0.6 mm.

**Q.** And the “zone of inhibition (mm) means ± SD” value [2, 5]?
**A.** The value was 8.7 ± 0.6 mm.

**Q.** And the “zone of inhibition (mm) means ± SD” value [3, 4]?
**A.** Its value is 7.3 ± 0.6 mm.

**Q.** And the “zone of inhibition (mm) means ± SD” value [3, 5]?
**A.** Its value is 7.3 ± 0.6 mm.

**Q.** Gentamicin [reference compound] was tested. Which “zone of inhibition (mm) means ± SD” value ([1]; positive control, CN10 μg disc) did it give?
**A.** The value was 18.7 ± 1.5 mm.

**Q.** What about the “zone of inhibition (mm) means ± SD” value ([2]; positive control, CN10 μg disc) of the same compound?
**A.** The value was 21.3 ± 1.2 mm.

**Q.** And the “zone of inhibition (mm) means ± SD” value ([3]; positive control, CN10 μg disc)?
**A.** Its value is 20.7 ± 1.2 mm.

Source: patent US12103932B2, “Process for preparing substituted imidazo[4,5-c]pyrazoles” (Imam Abdulrahman Bin Faisal University, priority 2021, dated 2024)
